Test results as given in PubChem BioAssay (NCI).
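48-hour exposure; five concentrations; linearly interpolated endpoints. TGI: total growth inhibition.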

Assays:
Assay in all cases: inhibition of tumour cell growth, NCI panel, 48 h
MCF7 breast = test system: MCF7 breast
KM12 colon = test system: KM12 colon
SF-268 CNS = test system: SF-268 CNS
NCI-H460 lung = test system: NCI-H460 lung
OVCAR-5 ovarian = test system: OVCAR-5 ovarian
DU-145 prostate = test system: DU-145 prostate
PC-3 prostate = test system: PC-3 prostate
U251 CNS = test system: U251 CNS
SF-539 CNS = test system: SF-539 CNS
HT29 colon = test system: HT29 colon
K-562 leukemia = test system: K-562 leukemia
HS 578T breast = test system: HS 578T breast
MDA-MB-231 breast = test system: MDA-MB-231 breast
MDA-N = test system: MDA-N
SN12C renal = test system: SN12C renal
NCI-H23 lung = test system: NCI-H23 lung
EKVX NSCLC = test system: EKVX NSCLC
SK-OV-3 ovarian = test system: SK-OV-3 ovarian
HCC-2998 colon = test system: HCC-2998 colon

Measured: TGI

Nc1ncc(Sc2ccccc2C(=O)O)s1
> 100 µM: MCF7 breast | KM12 colon | SF-268 CNS | NCI-H460 lung | OVCAR-5 ovarian | DU-145 prostate | PC-3 prostate | U251 CNS | SF-539 CNS | HT29 colon | K-562 leukemia | HS 578T breast | MDA-MB-231 breast | MDA-N | SN12C renal | NCI-H23 lung | EKVX NSCLC

Brc1ccc(-c2nc(-c3ccc(Br)cc3)n(-c3ccccc3)n2)cc1
> 100 µM: MCF7 breast | KM12 colon | SF-268 CNS | NCI-H460 lung | OVCAR-5 ovarian | DU-145 prostate | PC-3 prostate | U251 CNS | SF-539 CNS | HT29 colon | HS 578T breast | MDA-MB-231 breast | SK-OV-3 ovarian | MDA-N | SN12C renal | NCI-H23 lung | EKVX NSCLC

O=C(O)Cn1ccc(=O)c2c([N+](=O)[O-])cccc21
> 100 µM: MCF7 breast | KM12 colon | SF-268 CNS | NCI-H460 lung | OVCAR-5 ovarian | DU-145 prostate | PC-3 prostate | U251 CNS | SF-539 CNS | HT29 colon | K-562 leukemia | HS 578T breast | MDA-MB-231 breast | SK-OV-3 ovarian | MDA-N | SN12C renal | HCC-2998 colon | NCI-H23 lung

CCOP(=O)(/C=C/n1cnc2c(=O)n(C(C)=O)c(N)nc21)OCC
> 100 µM: MCF7 breast | KM12 colon | SF-268 CNS | NCI-H460 lung | OVCAR-5 ovarian | DU-145 prostate | PC-3 prostate | U251 CNS | SF-539 CNS | HT29 colon | K-562 leukemia | HS 578T breast | MDA-MB-231 breast | SK-OV-3 ovarian | MDA-N | SN12C renal | NCI-H23 lung | EKVX NSCLC

CSC1(Cc2ccccn2)C(=O)Nc2cccc([N+](=O)[O-])c21 (centres undefined)
> 100 µM: MCF7 breast | KM12 colon | SF-268 CNS | NCI-H460 lung | OVCAR-5 ovarian | DU-145 prostate | PC-3 prostate | U251 CNS | SF-539 CNS | HT29 colon | HS 578T breast | MDA-MB-231 breast | SK-OV-3 ovarian | MDA-N | SN12C renal | HCC-2998 colon | NCI-H23 lung | EKVX NSCLC

Nc1nc2c(c(=O)[nH]1)NC(CCNc1ccc(C(=O)O)cc1)CN2 (centres undefined)
> 100 µM: MCF7 breast | KM12 colon | SF-268 CNS | NCI-H460 lung | OVCAR-5 ovarian | DU-145 prostate | PC-3 prostate | U251 CNS | SF-539 CNS | HT29 colon | K-562 leukemia | HS 578T breast | MDA-MB-231 breast | SK-OV-3 ovarian | MDA-N | SN12C renal | NCI-H23 lung | EKVX NSCLC

CC(=O)Oc1ccc2cc(Oc3ccccc3)c(=O)oc2c1
> 100 µM: MCF7 breast | KM12 colon | SF-268 CNS | NCI-H460 lung | OVCAR-5 ovarian | DU-145 prostate | PC-3 prostate | U251 CNS | SF-539 CNS | HT29 colon | HS 578T breast | MDA-MB-231 breast | MDA-N | SN12C renal | HCC-2998 colon | NCI-H23 lung | EKVX NSCLC

COC(=O)c1ccccc1/C=C1\Cc2ccc3ccccc3c2C1C (centres undefined)
> 100 µM: MCF7 breast | KM12 colon | SF-268 CNS | NCI-H460 lung | OVCAR-5 ovarian | DU-145 prostate | PC-3 prostate | U251 CNS | SF-539 CNS | K-562 leukemia | HS 578T breast | MDA-MB-231 breast | MDA-N | SN12C renal | HCC-2998 colon | EKVX NSCLC
